Measured values: patent US20240383886A1, “Protein Tyrosine Phosphatase Degraders and Methods of Use Thereof” (CALICO LIFE SCIENCES LLC, priority 2019, published 2024)

Assays:
PTPN2 [1] = test: HiBiT-Degradation B16F10.4 PTPN2; type: cell-based; settings: B16F10.4 cells, 24.0 hours
PTPN2 [2] = target: T1, PTPN2 (Homo sapiens, UniProt P17706); test: HiBiT-Degradation 293T.109 PTPN2 (Nano-Glo HiBiT Lytic Assay); type: cell-based; settings: 293T.109 (HiBiT-PTPN2) cells, 24.0 hours
T1 construct: expressed in transfected cells; host or cells: 293T (293T.109 HiBiT-PTPN2 line; parental 293T WT from ATCC)
T1 sequence (P17706 1-415): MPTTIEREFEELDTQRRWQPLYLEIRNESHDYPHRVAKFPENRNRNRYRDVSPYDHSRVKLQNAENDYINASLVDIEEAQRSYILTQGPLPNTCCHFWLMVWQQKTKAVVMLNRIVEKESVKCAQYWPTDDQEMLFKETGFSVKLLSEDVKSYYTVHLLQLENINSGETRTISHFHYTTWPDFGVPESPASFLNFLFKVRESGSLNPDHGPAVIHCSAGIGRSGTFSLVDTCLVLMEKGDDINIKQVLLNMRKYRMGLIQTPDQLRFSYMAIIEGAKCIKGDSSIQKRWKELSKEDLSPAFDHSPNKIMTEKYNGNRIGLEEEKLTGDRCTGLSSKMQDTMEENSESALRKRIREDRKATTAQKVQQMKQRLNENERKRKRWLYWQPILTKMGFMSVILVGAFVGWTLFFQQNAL
How it was run: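 Luminescence from a lytic HiBiT read gave PTPN2 levels after 24 h compound exposure at 37° C. Compounds were tested at 11 half-log points from a 10 μM top concentration, in duplicate. The cells were 293T engineered with an N-terminal HiBiT–PTPN2 fusion, plated at 5000 per well, with untreated wells as negative control and no-reagent wells as positive control.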

Compound | DC50 (PTPN2 [1]) | DC50 (PTPN2 [2])
Cn1c(=O)n(C2CCC(=O)NC2=O)c2ccc(C3CCN(CC(=O)N4CC(Oc5ccc6cc(O)c(N7CC(=O)NS7(=O)=O)c(F)c6c5)C4)CC3)cc21 (centres unmarked) [Example 112, 3-[5-[1-[2-[3-[[8-fluoro-6-hydroxy-7-(1,1,4-trioxo-1,2,5-thiadiazolidin-2-yl)-2-naphthyl]oxy]azetidin-1-yl]-2-oxo-ethyl]-4-piperidyl]-3-methyl-2-oxo-benzimidazol-1-yl]piperidine-2,6-dione] | 50 to 200 nM | 10 to 50 nM
O=C1CCC(N2C(=O)c3cccc4c(C5CCN(CC(=O)Nc6ccc7c(F)c(N8CC(=O)NS8(=O)=O)c(O)cc7c6)CC5)ccc2c34)C(=O)N1 (centres unmarked) [Example 26, 2-[4-[1-(2,6-dioxo-3-piperidyl)-2-oxo-benzo[cd]indol-6-yl]-1-piperidyl]-N-[5-fluoro-7-hydroxy-6-(1,1,4-trioxo-1,2,5-thiadiazolidin-2-yl)-2-naphthyl]acetamide] | 50 to 200 nM | 50 to 200 nM
Cn1c(=O)n(C2CCC(=O)NC2=O)c2ccc(-c3ccc(CC(=O)Nc4ccc5c(F)c(N6CC(=O)NS6(=O)=O)c(O)cc5c4)cc3)cc21 (centres unmarked) [Example 77, 2-[4-[1-(2,6-dioxo-3-piperidyl)-3-methyl-2-oxo-benzimidazol-5-yl]phenyl]-N-[5-fluoro-7-hydroxy-6-(1,1,4-trioxo-1,2,5-thiadiazolidin-2-yl)-2-naphthyl]acetamide] | 10 to 50 nM | 10 to 50 nM
Cn1c(=O)n(C2CCC(=O)NC2=O)c2cccc(C3CCN(CCOCCC(=O)NCCOc4ccc5cc(O)c(N6CC(=O)NS6(=O)=O)c(F)c5c4)CC3)c21 (centres unmarked) [Example 39] | ≥ 1000 nM | ≥ 1000 nM
O=C1CCC(N2C(=O)c3ccc(NCc4cnn(C5CN(C(=O)Nc6ccc7c(F)c(N8CC(=O)NS8(=O)=O)c(O)cc7c6)C5)c4)cc3C2=O)C(=O)N1 (centres unmarked) [Example 64] | ≥ 1000 nM | 200 to 1000 nM
O=C(CN1CCC(c2ccc3c4c(cccc24)C(=O)N3C2CCC(=O)NC2=O)CC1)NCCOc1ccc2cc(O)c(N3CC(=O)NS3(=O)=O)c(F)c2c1 (centres unmarked) [Example 7, N-(2-((7-(1,1-dioxido-4-oxo-1,2,5-thiadiazolidin-2-yl)-8-fluoro-6-hydroxynaphthalen-2-yl)oxy)ethyl)-2-(4-(1-(2,6-dioxopiperidin-3-yl)-2-oxo-1,2-dihydrobenzo[cd]indol-6-yl)piperidin-1-yl)acetamide] | 10 to 50 nM | 10 to 50 nM
Cn1c(=O)n(C2CCC(=O)NC2=O)c2ccc(C3CCN(CC(=O)Nc4ccc5c(F)c(N6CC(=O)NS6(=O)=O)c(O)cc5c4)CC3(F)F)cc21 (centres unmarked) [Example 129, 2-[4-[1-(2,6-dioxo-3-piperidyl)-3-methyl-2-oxo-benzimidazol-5-yl]-3,3-difluoro-1-piperidyl]-N-[5-fluoro-7-hydroxy-6-(1,1,4-trioxo-1,2,5-thiadiazolidin-2-yl)-2-naphthyl]acetamide] | 50 to 200 nM | 50 to 200 nM
Cn1c(=O)n(C2CCC(=O)NC2=O)c2ccc(C3CCN(C(=O)CNc4ccc5c(F)c(N6CC(=O)NS6(=O)=O)c(O)cc5c4)CC3)cc21 (centres unmarked) [Example 54] | ≥ 1000 nM | 200 to 1000 nM
Cn1c(=O)n(C2CCC(=O)NC2=O)c2ccc(-c3cnn(CC(=O)Nc4ccc5c(F)c(N6CC(=O)NS6(=O)=O)c(O)cc5c4)c3)cc21 (centres unmarked) [Example 172, 2-[4-[1-(2,6-dioxo-3-piperidyl)-3-methyl-2-oxo-benzimidazol-5-yl]pyrazol-1-yl]-N-[5-fluoro-7-hydroxy-6-(1,1,4-trioxo-1,2,5-thiadiazolidin-2-yl)-2-naphthyl]acetamide] | 10 to 50 nM | 10 to 50 nM
Cn1c(=O)n(C2CCC(=O)NC2=O)c2ccc(C3CCN(C(=O)c4ccc5c(F)c(N6CC(=O)NS6(=O)=O)c(O)cc5c4)CC3)cc21 (centres unmarked) [Example 71] | ≥ 1000 nM | ≥ 1000 nM
Cc1cc(CC(=O)Nc2ccc3c(F)c(N4CC(=O)NS4(=O)=O)c(O)cc3c2)ccc1Nc1ccc2c(C3CCC(=O)NC3=O)nn(C)c2c1 (centres unmarked) [Example 185, N-(6-(1,1-dioxido-4-oxo-1,2,5-thiadiazolidin-2-yl)-5-fluoro-7-hydroxynaphthalen-2-yl)-2-(4-((3-(2,6-dioxopiperidin-3-yl)-1-methyl-1H-indazol-6-yl)amino)-3-methylphenyl)acetamide] | 50 to 200 nM | 10 to 50 nM
Cn1c(=O)n(C2CCC(=O)NC2=O)c2ccc(C3CCN(CC(=O)N4CCC(c5ccc6cc(O)c(N7CC(=O)NS7(=O)=O)c(F)c6c5)C4)CC3)cc21 (centres unmarked) [Example 90, 3-[5-[1-[2-[3-[8-fluoro-6-hydroxy-7-(1,1,4-trioxo-1,2,5-thiadiazolidin-2-yl)-2-naphthyl]pyrrolidin-1-yl]-2-oxo-ethyl]-4-piperidyl]-3-methyl-2-oxo-benzimidazol-1-yl]piperidine-2,6-dione] | 200 to 1000 nM | 50 to 200 nM
O=C1CCC(Nc2ccc(C3CCN(CC(=O)Nc4ccc5c(F)c(N6CC(=O)NS6(=O)=O)c(O)cc5c4)CC3)c(F)c2)C(=O)N1 (centres unmarked) [Example 55] | ≥ 1000 nM | 200 to 1000 nM
O=C1CCC(N2Cc3cc(OCc4cn(CCC(=O)Nc5ccc6c(F)c(N7CC(=O)NS7(=O)=O)c(O)cc6c5)nn4)ccc3C2=O)C(=O)N1 (centres unmarked) [Example 20, 3-[4-[[2-(2,6-dioxo-3-piperidyl)-1-oxo-isoindolin-5-yl]oxymethyl]triazol-1-yl]-N-[5-fluoro-7-hydroxy-6-(1,1,4-trioxo-1,2,5-thiadiazolidin-2-yl)-2-naphthyl]propanamide] | 50 to 200 nM | 50 to 200 nM
O=C1CCC(N2C(=O)c3cccc(NCc4cnn(CCC(=O)Nc5ccc6c(F)c(N7CC(=O)NS7(=O)=O)c(O)cc6c5)c4)c3C2=O)C(=O)N1 (centres unmarked) [Example 12, 3-[4-[[[2-(2,6-dioxo-3-piperidyl)-1,3-dioxo-isoindolin-4-yl]amino]methyl]pyrazol-1-yl]-N-[5-fluoro-7-hydroxy-6-(1,1,4-trioxo-1,2,5-thiadiazolidin-2-yl)-2-naphthyl]propanamide] | ≥ 1000 nM | 200 to 1000 nM
Cn1c(=O)n(C2CCC(=O)NC2=O)c2ccc(NC3CN(CC(=O)Nc4ccc5c(F)c(N6CC(=O)NS6(=O)=O)c(O)cc5c4)C3)cc21 (centres unmarked) [Example 27, 2-[3-[[1-(2,6-dioxo-3-piperidyl)-3-methyl-2-oxo-benzimidazol-5-yl]amino]azetidin-1-yl]-N-[5-fluoro-7-hydroxy-6-(1,1,4-trioxo-1,2,5-thiadiazolidin-2-yl)-2-naphthyl]acetamide] | 200 to 1000 nM | 10 to 50 nM
Cn1c(=O)n(C2CCC(=O)NC2=O)c2ccc(CCC(=O)NCCOc3ccc4cc(O)c(N5CC(=O)NS5(=O)=O)c(F)c4c3)cc21 (centres unmarked) [Example 34] | ≥ 1000 nM | ≥ 1000 nM
Cn1c(=O)n(C2CCC(=O)NC2=O)c2ccc(C3CCN(CCC(=O)N4CC=C(c5ccc6cc(O)c(N7CC(=O)NS7(=O)=O)c(F)c6c5)C4)CC3)cc21 (centres unmarked) [Example 89, 3-[5-[1-[3-[3-[8-fluoro-6-hydroxy-7-(1,1,4-trioxo-1,2,5-thiadiazolidin-2-yl)-2-naphthyl]-2,5-dihydropyrrol-1-yl]-3-oxo-propyl]-4-piperidyl]-3-methyl-2-oxo-benzimidazol-1-yl]piperidine-2,6-dione] | 50 to 200 nM | 50 to 200 nM
Cn1c(=O)n(C2CCC(=O)NC2=O)c2ccc(Nc3ccc(NC(=O)c4ccc5c(F)c(N6CC(=O)NS6(=O)=O)c(O)cc5c4)cc3)cc21 (centres unmarked) [Example 132] | 200 to 1000 nM | 50 to 200 nM
